{"source": "paper PMC4264242", "about": "“Androgen Receptor Antagonists and Anti-Prostate Cancer Activities of Some Newly Synthesized Substituted Fused Pyrazolo-, Triazolo- and Thiazolo-Pyrimidine Derivatives” (International Journal of Molecular Sciences, 2014)", "test_system": "castrated immature rats", "assay": "In vivo anti-androgenic activity in castrated immature rats treated with testosterone propionate", "parameters": "species or system rat", "excerpt": "[…] male Wistar rats were obtained from the Animal House Colony, Research Institute of Ophthalmology, Giza, Egypt. Prepubertal male rats aged 3 weeks were castrated using the scrotal route under ether anesthesia.", "data": [{"smiles": "CC(O)(CS(=O)(=O)c1ccc(F)cc1)C(=O)Nc1ccc(C#N)c(C(F)(F)F)c1", "note": "(centres unmarked) [Bicalutamide, reference compound]", "values": [{"measurement": "ED50", "setting": "Rattus norvegicus, castrated immature rats, TP 0.5 mg/kg s.c., compound p.o., read-out: ED50, in vivo anti-androgen activity", "value": 1.6, "unit": "mg/kg"}, {"measurement": "% (Inhibition), in vivo anti-androgen activity", "setting": "inhibition of TP effect (TP 0.5 mg/kg s.c. once daily for 5 days), tested compound 10-30 mg/kg p.o.", "value": 75, "unit": "%"}]}]}
